This assay deals with Melanoderm cultures. The assay is described as follows: Solvable melanin assay on Melanoderm cultures (3-D skin model). The conditions noted are these: for OD = 490 nm (melanin content): Melanoderm cultures fed every other day for 2 weeks, Untreated control 1.259, ETOH control 1.035. In kind it is cell-based. Here is the method: This experiment was carried out using a Melanoderm cultures. […] was measured using a chromameter to assay the degree of melanization of a 3-D skin model. Melanoderm cultures were obtained from MatTek Corporation, Ashland, Mass. The Melanoderm was maintained according to the manufacturer's instructions. The basal media used for the maintenance of the Melanoderm cultures was DMEM supplemented with unspecified quantities of Epidermal growth factor, Insulin, Hydrocortisone, and proprietary epidermal differentiation compounds, in addition to anti-fungal and antibiotics. For the long term maintenance of the Melanoderms, the basal media was supplemented with both bFGF and a-MSH, compounds which are stimulators of melanocyte growth and melanogenesis. The cultures were fed every other day for a total of 2 weeks—fresh active preparations, prepared in DMSO or culture media, were also applied to the Melanoderms when feeding was performed. Each treatment condition was done in duplicate and digital photographs were taken of the Melanoderm cultures to assess overall pigmentation. As well, microscopic images of the Melanoderms were done to assess the cell viability of the keratinocytes and melanocytes. For further evidence that the treatments were/not cytotoxic, an LDH assay (Promega, Madison, Wis.) was performed on the supernatants from 24 hour post-treatment cultures. After treatment, tissues are usually frozen until completion of the experiment. Thaw tissues, a few at a time and place in D-PBS to remove excess phenol red from the culture medium and residual test article. Remove a single tissue from the insert. Blot dry and place in 1.7 ml. microfuge tube. Repeat for all samples. Add 250 ul Solvable™ (Tissue and Gel Solubilizer 0.5 M—Packard BioScience Co. Catalogue No. 6NE9100 (NEF910)). Close the tube and make sure that the tissue is completely submerged. Incubate at 60° C. overnight along with standards. In the morning, vortex the samples. Sometimes thick tissues will require additional time to complete the solution process. To Prepare Standard: Dissolve Melanin (Sigma cat. M 8631) in Solvable at 1 mg/ml. The solution may be warmed gently for 15 minutes at 37° C. Store solution in dark. To Prepare Standard Curve: Prepare dilutions from the standard containing 0 ug to 250 ug of melanin in a total of 250 ul Solvable. Incubate dilutions along with samples. To Read Assay: Cool samples and standards. Centrifuge at 13,000 rpm for 5 minutes to pellet. Fill microwell plate (C-96) with 200 ul each of samples and standards. There is some foaming of samples when pipetted. Blow gently across the samples to break bubbles prior to reading the plate. Read plate at […].

Consider `O=C(O)C(=O)Cc1ccc(O)cc1` [4-hydroxyphenylpyruvate], for which the “OD = 490 nm (melanin content)” value reads like this: (5 uM) 1.236; (50 uM) 0.687; (500 uM) 0.565; (1000 uM) 0.453. For the same molecule, the “effect on melanin synthesis” value (conclusion from Table 5, Melanoderm cultures) is reported as “reduce melanin synthesis”.

Source of the values: patent US7250158B1, “Skin lightening agents, compositions and methods” (Conopco, Inc., priority 2006, dated 2007).
